What was measured:
Human ATX = Human ATX (Homo sapiens (Human), UniProt Q13822); assay: Assay A: Biochemical ATX Assay; details: recombinant ATX, 18:1 LPC substrate, 18:1 LPA formation; compounds of the invention
Method: 5 nM recombinant ATX (Cayman Chemicals) was supplemented to 50 mM Tris buffer (pH 8.0) containing 3 mM KCl, 1 mM CaCl2, 1 mM MgCl2 0.14 mM NaCl, and 0.1% bovine serum albumin. Test compounds were dissolved in DMSO and tested in the range of 0.1 nM to 10 μM. The enzymatic reaction (22.5 μL) was started by addition of 2.5 μL 10 μM 18:1 LPC (Avanti Lipids, Alabaster, Ala., USA). After 2-h incubation at room temperature, the reaction was stopped by addition of 20 μL water containing 500 nM 20:4 LPA as internal standard and 100 μL 1-butanol for extracting LPA. Subsequently, the plates were centrifuged at 4000 rpm, 4° C., for 2 min. The resultant upper butanol phase was directly used for injection at a RapidFire system (Agilent).
The RapidFire autosampler was coupled to a binary pump (Agilent 1290) and a Triple Quad 6500 (ABSciex, Toronto, Canada). This system was equipped with a 10-μL loop, 5 μL Waters Atlantis HILIC cartridge (Waters, Elstree, UK), 90% acetonitrile containing 10 mM ammonium acetate as eluent A and 40% acetonitrile containing 10 mM ammoniumacetate as eluent B. For details see (Bretschneider et al., SLAS Discovery, 2017). 1 The MS was operated in negative mode with a source temperature of 550° C., curtain gas=35, gas 1=65, and gas 2=80. The following transitions and MS parameters (DP: declustering potential and CE: collision energy) for the respective LPAs were determined: 18:1 LPA at 435.2/152.8, DP=−40, CE=−28 and 20:4 LPA at 457.2/152.8, DP=−100, CE=−27).
The formation of 18:1 LPA was monitored and evaluated as ratio to 20:4 LPA.

ATX in human whole blood = ATX in human whole blood (Homo sapiens (Human), UniProt Q13822); assay: Assay B: Whole-Blood ATX Assay; assay type: biochemical; details: 1 h at 37° C., 18:2 LPA formation, compounds of the invention
Method: ATX is a soluble plasma protein, which is active in heparinized whole blood. Its substrate LPC is highly abundant, its concentration being in the μM range. Therefore, a whole blood assay at physiological substrate concentrations is a highly relevant assay, predictive for the efficacy of ATX inhibitors in vivo.
45 μL human whole-blood was supplemented with 5 μL of the test compound, dissolved in phosphate-buffered saline (concentration range 0.12 nM-100 μM). This mixture was incubated for 1 h at 37° C. and stopped by addition of 100 μL 40 mM disodium hydrogen phosphate buffer containing 30 mM citric acid (pH 4) and 1 μM 17:0 LPA (internal standard). LPA was extracted by addition of 500 μL 1-butanol, followed by 10-min centrifugation at 4000 rpm, 4° C. From the resultant organic supernatant, a 200 μL aliquot was transferred into a 96-deep-well plate and transferred to the RapidFire-based MS/MS measurement.
The RapidFire autosampler was coupled to a binary pump (Agilent 1290) and a Triple Quad 6500 (ABSciex, Toronto, Canada). This system was equipped with a 10-μL loop, 5-μL Waters Atlantis HILIC cartridge (Waters, Elstree, UK), 90% acetonitrile containing 10 mM ammonium acetate as eluent A and 40% acetonitrile containing 10 mM ammoniumacetate as eluent B. For details see (Bretschneider et al., SLAS Discovery, 2017, 22, 425-432). The MS was operated in negative mode with a source temperature of 550° C., curtain gas=35, gas 1=65, and gas 2=80. The following transitions and MS parameters (DP: declustering potential and CE: collision energy) for the respective LPAs were determined: 18:2 LPA at 433.2/152.8, DP=−150, CE=−27 and 17:0 LPA at 423.5/152.8, DP=−100.
The formation of 18:2 LPA was monitored and evaluated as ratio to 17:0 LPA.

plasma LPA = assay: Assay C: In Vivo, plasma LPA reduction after oral dosing; design: species or system rat; details: rats, 5 mg/kg, 8 hours post application
Method: LPA reduction in vivo is determined by measuring the plasma concentration of LPA after oral dosage of the compounds of the present invention. LPA is a very strong bioactive lipid, which efficiently activates downstream pathways via the LPA-receptors 1-6 in a concentration dependent manner. The pronounced and sustained blockage of the LPA formation via ATX inhibition is assessed by measuring the extent of LPA reduction 8 hours after compound dosage. A high reduction of plasma LPA at 8 h is therefore highly indicative for efficacy and sustained duration of action in vivo as well as sustained target engagement of the LPA receptors.
The test substance was solubilized in 0.5% natrosol supplemented with 0.015% Tween 80 for oral application to rats at a dose of 5 mg/kg. Blood samples were collected before compound administration and 8 hours post application on ice using EDTA as coagulation agent. Subsequently, plasma was prepared by centrifugation and stored until analysis at −20° C.
LPAs from plasma samples were extracted by using the procedure described by Scherer et al. (Clinical chemistry 2009, 55, 1218-22). 35 μL of heparinized plasma was mixed with 200 μL 40 mM disodium hydrogen phosphate buffer containing 30 mM citric acid (pH 4) and 1 μM 17:0 LPA (internal standard). Subsequently, 500 μL butanol was added and shaken vigorously for 10 min. Samples were centrifuged afterwards at 4000 rpm, 4° C., for 10 min. […]
A Triple Quad 6500 (ABSciex, Toronto, Canada) was equipped with an Agilent 1290 LC system (Agilent, Santa Clara, Calif.) a CTC autosampler and an Atlantis 50×2.1-mm, 3-μm HILIC LC column (Waters, Elstree, UK). […] The following LPA species were monitored (DP: declustering potential and CE: collision energy): 16:0 LPA at 409.2/152.8, DP=−150, CE=−28; 18:0 LPA at 437.3/152.8, DP=−60, CE=−28; 18:1 LPA at 435.2/152.8, DP=−40, CE=−28; 18:2 LPA at 433.2/152.8, DP=−150, CE=−28; 20:4 LPA at 457.2/152.8, DP=−100, CE=−29 and 17:0 LPA at 423.5/152.8, DP=−100, CE=−36. LPA depletion in percent was calculated based on the baseline LPA levels before test compound application. […]

LPA levels = details: as disclosed in ACS Med. Chem. Lett. 2017, 8, 1252-1257; cited from earlier work
[1] = vs baseline, sum of LPA, compounds of the invention

Row | IC50 (Human ATX) [nM] | IC50 (ATX in human whole blood) [nM] | Structure (SMILES) | LPA reduction at 8 h (plasma LPA; prior art compounds of WO2014/139882) [%] | LPA reduction at 8 h (plasma LPA; [1]) [%] | LPA levels in vivo (LPA levels)
1 | 4 | 264 | CC(=O)N1CCC(c2ccc(CNc3ccc(OCc4ccccc4)nn3)cc2)CC1 [Example 2.5] |  |  | 
2 | 4 | 9 | CC(=O)N1CCN(c2ccc(CNc3ccc(OCc4ccc(OC(F)(F)F)nc4)nn3)cc2)CC1 [Example 1.5] |  |  | 
3 | 5 |  | CC(=O)N1CCN(c2ccc(CNc3ccc(OCc4cc(C#N)cc(OC(F)(F)F)c4)nn3)cc2)CC1 [Example 1.6] |  |  | 
4 | 3 | 33 | COc1ccc(COc2ccc(NCc3ccc(N4CCN(C(C)=O)CC4)cc3)nn2)cn1 [Example 2.1, 1-[4-(4-{[6-(6-Methoxy-pyridin-3-ylmethoxy)-pyridazin-3-ylamino]-methyl}-phenyl)-piperazin-1-yl]-ethanone] |  | 98.3 | 
5 | 3 | 73 | CC(=O)N1CCN(c2ccc(CNc3ccc(OCc4ccccc4)nn3)cc2)CC1 [Example 2.4] |  |  | 
6 | 8 | 186 | COc1cc(COc2ccc(NCc3ccc(N4CCN(C(C)=O)CC4)cc3)nn2)ccn1 [Example 2.3] |  |  | 
7 | 3 | 38 | COc1ccc(COc2ccc(NCc3ccc(C4CCN(C(C)=O)CC4)cc3)nn2)cn1 [Example 2.2] |  |  | 

Second part, the molecule before the results:

Row | Structure (SMILES) | IC50 (Human ATX) [nM] | IC50 (ATX in human whole blood) [nM] | LPA reduction at 8 h (plasma LPA; prior art compounds of WO2014/139882) [%] | LPA reduction at 8 h (plasma LPA; [1]) [%] | LPA levels in vivo (LPA levels)
8 | CC(=O)N1CCN(c2ccc(CNc3ccc(OCc4cncc(C#N)c4)nn3)cc2)CC1 [Example 1.2] | 2 | 55 |  |  | 
9 | CC(=O)N1CCN(c2ccc(CNc3ccc(OCc4ccnc(C#N)c4)nn3)cc2)CC1 [Example 1.3] | 5 | 83 |  |  | 
10 | CC(=O)N1CCN(c2ccc(CNc3ccc(OCc4cc(Cl)cc(Cl)c4)nn3)cc2)CC1 [Example 1.1, 1-[4-(4-{[6-(3,5-Dichloro-benzyloxy)-pyridazin-3-ylamino]-methyl}-phenyl)-piperazin-1-yl]-ethanone] | 6 | 46 |  |  | 
11 | CCc1nc2c(C)cc(N3CCN(CC(=O)N4CC(O)C4)CC3)cn2c1N(C)c1nc(-c2ccc(F)cc2)c(C#N)s1 [Example 2 in WO2014/139882, reference compound] |  |  | 58.1 |  | 
12 | O=C(NC[C@@H]1[C@H]2CN(C(=O)OCc3cc(C(F)(F)F)cc(C(F)(F)F)c3)C[C@@H]12)c1ccc2[nH]nnc2c1 |  |  |  |  | significantly reduces LPA levels in vivo
13 | CC(=O)N1CCN(c2ccc(CNc3ccc(OCc4cccc(C#N)c4)nn3)cc2)CC1 [Example 1.4] | 4 | 201 |  | 95.7 | 
